Bounds are passed on as bounds.

Results on one compound are retold here after publication PMC6050274, “Buparlisib is a brain penetrable pan-PI3K inhibitor” (Scientific Reports, 2018).

For one series, the system named is LLC-PK1 cells. Put plainly: Conventional transport assay (CTA), diffusion over a cellular monolayer. Conditions: zosuquidar present, both directions, 100 nM. The format is in vitro ADME, porcine. From the text: We first sought to investigate whether buparlisib (Fig. 1A) is transported by P-gp or BCRP in vitro using concentration equilibrium transport assays (CETAs). CETAs are sensitive assays to determine translocation over a cellular monolayer and are frequently used to determine substrate affinity for ABC transporters by comparing cell lines that overexpress ABC transporters with their parental counterparts[24]–[26]. Since P-gp and BCRP are apically located transporters, a prerequisite for detecting substrate affinity for these transporters in a CETA is the capacity of a molecule to penetrate cell membranes. We therefore first confirmed that buparlisib could efficiently diffuse over a cellular monolayer using a conventional transwell set-up. […]
Conventional bidirectional transport assays (CTAs) and concentration equilibrium transport assays (CETAs) were performed as described previously. […] Transwell leakiness was determined as Carboxyl-[^14C]-inulin translocation exceeding 1.5% per hour and these wells were excluded from the analysis.
To prepare buparlisib transport assay samples for LC-MS/MS analysis, 10 μL medium samples were mixed with 30 μL of acetonitrile:formic acid (100:1 v/v). After centrifugation, the supernatant was 5-fold diluted in water and the buparlisib concentration was measured using an LC-MS/MS system as described below.

A further series has as its target T1, human P-gp (ABCB1/MDR1) (Homo sapiens, UniProt P08183).
T1 construct: expressed in transfected cells; host or cells: LLC-PK1 (LLC-MDR1)
Put plainly: Concentration equilibrium transport assay (CETA), LLC-MDR1. Conditions: 100 nM. The series is classed as in vitro ADME. The source says:
Figure 1 Analysis of buparlisib substrate affinity for ABC transporters using in vitro transport assays. (A) The chemical structure of buparlisib. (B) A conventional transport assay (CTA) using LLC-PK1 cells in presence of zosuquidar to block endogenous (porcine) P-gp activity. […] (C) Concentration equilibrium transport assays (CETAs) using MDCK or LLC cells that overexpress murine BCRP, (Bcrp1), human BCRP, murine P-gp (Mdr1a) or human P-gp (MDR1). […] The P-gp inhibitor zosuquidar was used in all MDCK cell lines to inhibit endogenous P-gp activity and in LLC cell lines to validate possible P-gp-mediated translocations. […]
Conventional bidirectional transport assays (CTAs) and concentration equilibrium transport assays (CETAs) were performed as described previously. […] Transwell leakiness was determined as Carboxyl-[^14C]-inulin translocation exceeding 1.5% per hour and these wells were excluded from the analysis. […]
As described in detail before, CETA results were analysed with the General linear model repeated measures procedure of SPSS (v22; SPSS Inc, Chicago, IL)[25]. […] The standard error of the oral bioavailability was calculated using the formula below: SEF=F(SEAUCp.o./AUCp.o.)^2+(SEAUCi.v./AUCi.v.)^2 Buparlisib concentrations in WT and transporter knockout mice in vivo were compared using one-way analysis of variance followed by post hoc Bonferroni tests. […]

Another series deals with PI3K. Put plainly: Intracranial target inhibition, immunoblotting of brain lysates. The format is in vivo, FVB mice. As for the experimental part: Figure 3 Buparlisib has excellent intracranial target engagement and oral bioavailability. (A) Buparlisib was orally administered to wildtype mice at a dose of 1 mg/kg, 2 mg/kg or 5 mg/kg. One hour after injection, blood and tissues were collected for LC-MS/MS analysis. Buparlisib plasma and brain levels increase dose-dependently, yielding similar and excellent brain-plasma ratios at all dose levels that were tested. (B) Immunoblotting of brain tissue lysates from (A). […] (C) Plasma-time curves of male and female wildtype mice following intravenous (2 mg/kg) or oral (5 mg/kg) administration. […] The oral bioavailability of buparlisib is excellent, since oral and intravenous administration yielded similar dose-adjusted AUCs (see Table 1). All data are represented as mean ± SD (n = 4).
Next, we studied the intracranial pharmacodynamics of buparlisib in WT FVB mice as measured by target inhibition.
Mouse brains were homogenized in RIPA buffer supplemented with sodium fluoride (2 mM), sodium orthovanadate (1 mM), sodium pyrophosphate (1 mM), β-glycerophosphate (2.5 mM), PMSF (1 mM), DTT (1 mM) and protein inhibitor cocktail (Roche; Basel, Switzerland). The primary antibodies that were used in this study are phospho-Akt^S473 (1:1000; D9E, #4060; Cell Signaling Technology; Danvers, MA), total Akt (1:1000; #9272; Cell Signaling Technology), phospho-Erk1^T202/204/Erk2^T183/Y185 (1:1000; sc-16982; Santa Cruz Biotechnology, Dallas, TX), total Erk1/2 (1:1000; C16, sc-93; Santa Cruz Biotechnology) and β–tubulin (1:1000; T3952; Sigma-Aldrich, St. Louis, MO). Goat-anti-rabbit-HRP (1:2000; DAKO, Santa Clara, CA) was used a secondary antibody.
For orientation: Immunoblotting shows a protein as a band on a membrane.

T1 sequence (P08183 whole entry): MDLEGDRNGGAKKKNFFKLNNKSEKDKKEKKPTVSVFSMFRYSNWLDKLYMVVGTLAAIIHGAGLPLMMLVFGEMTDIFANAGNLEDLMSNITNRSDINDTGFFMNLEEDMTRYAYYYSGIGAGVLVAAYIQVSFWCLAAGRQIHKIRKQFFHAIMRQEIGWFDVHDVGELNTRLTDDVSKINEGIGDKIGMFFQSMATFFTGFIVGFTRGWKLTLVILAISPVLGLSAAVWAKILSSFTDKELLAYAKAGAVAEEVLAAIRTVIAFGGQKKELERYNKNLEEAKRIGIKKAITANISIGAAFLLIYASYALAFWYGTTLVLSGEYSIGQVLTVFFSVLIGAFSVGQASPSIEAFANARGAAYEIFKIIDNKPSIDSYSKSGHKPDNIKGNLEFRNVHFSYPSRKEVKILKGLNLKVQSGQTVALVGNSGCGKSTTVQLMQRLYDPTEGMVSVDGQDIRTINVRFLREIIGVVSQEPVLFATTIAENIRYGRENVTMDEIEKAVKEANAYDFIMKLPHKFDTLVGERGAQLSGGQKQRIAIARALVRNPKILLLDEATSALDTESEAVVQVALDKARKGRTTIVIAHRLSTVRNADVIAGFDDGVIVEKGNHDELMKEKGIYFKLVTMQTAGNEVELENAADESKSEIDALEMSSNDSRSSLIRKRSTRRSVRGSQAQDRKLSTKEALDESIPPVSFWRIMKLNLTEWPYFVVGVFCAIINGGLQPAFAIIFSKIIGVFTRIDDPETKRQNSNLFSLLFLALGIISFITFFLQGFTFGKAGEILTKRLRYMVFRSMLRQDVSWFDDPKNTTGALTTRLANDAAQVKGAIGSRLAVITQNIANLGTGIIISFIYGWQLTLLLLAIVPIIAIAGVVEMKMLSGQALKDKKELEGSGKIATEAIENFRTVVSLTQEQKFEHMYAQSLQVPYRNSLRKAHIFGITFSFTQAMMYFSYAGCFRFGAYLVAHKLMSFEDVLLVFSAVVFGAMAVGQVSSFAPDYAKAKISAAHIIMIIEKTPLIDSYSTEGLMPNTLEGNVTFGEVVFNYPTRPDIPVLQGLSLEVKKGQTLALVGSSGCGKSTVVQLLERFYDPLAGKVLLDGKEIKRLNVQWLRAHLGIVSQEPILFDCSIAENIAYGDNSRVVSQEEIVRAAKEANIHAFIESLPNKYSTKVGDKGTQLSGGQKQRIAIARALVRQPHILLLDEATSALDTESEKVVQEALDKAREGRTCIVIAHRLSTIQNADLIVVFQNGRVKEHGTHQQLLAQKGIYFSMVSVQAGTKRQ

On to `Nc1cc(C(F)(F)F)c(-c2cc(N3CCOCC3)nc(N3CCOCC3)n2)cn1` [buparlisib], for which the “time to plateau to almost complete equilibrium between apical and basal compartments” value in the series on LLC-PK1 cells is at most 4 h. For the same compound, the “substrate of human P-gp” value at human P-gp (ABCB1/MDR1) is reported as “not a substrate”. In addition, in the series with PI3K (oral 5 mg/kg, wildtype mice), the “phosphorylation of Akt S473 in the brain” value is given as “efficiently inhibited”. The “phosphorylation of AKT in brain lysates” value in the series with PI3K (oral 1, 2, 5 mg/kg, WT FVB mice) was “dose-dependently decreased”. Besides, the “signalling through ERK in brain lysates” value with PI3K (oral, WT FVB mice) is reported as “without affecting”.
